According to patent US6482805B2 (Parker Hughes Institute, priority 1998, dated 2002):
Like-named read-outs stand apart in the source and are kept apart here.

What was measured:
human sperm = assay: Sperm motility assay by CASA (Example 1); format: cell-based; details: for spermicidal activity, in words: compared with related derivatives; for EC50: 3 hours incubation at 37° C., CASA, read-out: EC50, sperm motility
Method: All donor specimens were obtained after informed consent and in compliance with the guidelines of the Wayne Hughes Institute Institutional Review Board. Motile sperm (≧10×10^6/ml), were suspended in 0.5 ml of Biggers, Whitten, and Whittingam's medium (BWW) containing 25 mM HEPES (Irvine Scientific, Santa Ana, Calif.), and 0.3% bovine serum albumin (BSA; Fraction V, Sigma Chemical Co, St. Louis, Mo.) in the presence and absence of serial two-fold dilutions of test substance (300 μM to 4.6 μm) in 1% DMSO. The stock solutions of synthetic WHI compounds were prepared in DMSO (10 mg/ml) and diluted in DMSO to yield the desired concentrations. Corresponding volume of DMSO (1%) was added to control tubes. N-9 was diluted in BWW-0.3% BSA (pH 7.4) to yield the desired concentrations (4.6 to 300 μM). After 3 hours of incubation at 37° C., the percentage of motile sperm was evaluated by computer-assisted sperm analysis (CASA) as described [L. J. Burkman, Fertil. Steril. […] The percent motilities were compared with sham-treated control suspensions of motile sperm. […] Non-linear regression analyses were used to determine the EC50 values from the concentration effect curves using GraphPad PRISM software (San Diego, Calif.).
For evaluating sperm motion kinematics using CASA, 4 μl each of sperm suspension was loaded into two 20-μm Microcell chambers (Conception Technologies) that was placed onto a counting chamber at 37° C. At least 5-8 fields per chamber were scanned for analysis using a Hamilton Thorne Integrated Visual Optical System (IVOS), version 10 instrument (Hamilton Thorne Research Inc., Danvers, Mass.). Each field was recorded for 30 seconds. […] The performance of the analyzer was periodically checked using the play-back function. The attributes of sperm kinematic parameters evaluated included numbers of motile (MOT) and progressively (PRG) motile sperm; curvilinear velocity (VCL; a measure of the total distance traveled by a given sperm during the acquisition divided by the time elapsed); average path velocity (VAP; the spatially averaged path that eliminates the wobble of the sperm head), straight line velocity (VSL; the straight-line distance from beginning to end of track divided by time taken), beat cross frequency (BCF, frequency of sperm head crossing sperm average path), the amplitude of lateral head displacement (ALH; the mean width of sperm head oscillation) and the derivatives, straightness ([…]); linearity (LIN=100×VSL/VCL; departure of sperm track from a straight line). Data from each individual cell track were recorded and analyzed. At least 200 motile sperm were analyzed for each aliquot sampled.

HIV-1 = assay: Anti-HIV-1 activity, p24 antigen assay in infected PBMC (Example 1); format: cell-based; details: for anti-HIV activity, in words: compared with parent AZT derivatives
Method: Subsequently, cells were cultured in 96-well microtiter plates (100 μl/well; 2×10^6/ml, triplicate wells) in the presence and absence of various concentrations (0.00 μM to 100 μM) of drugs for 7 days. Aliquots of culture supernatants were removed from the wells on the 7th day after infection for p24 antigen enzyme immunoassay as an indication of viral replication. Erice et al. Antimicrob. Agents and Chemother. […] Agents and Chemother. […] Percent inhibition of virus replication was calculated by comparing the p24 antigen values from the test drug-treated infected cells with p24 antigen values from untreated infected cells. […] Cell viability was quantified by a colorimetric […] assay. F. M. Uckun et al., Antimicrob. Agents and Chemother.

sperm acrosome = assay: Sperm acrosome and membrane integrity by FITC-lectin staining, confocal, SEM and TEM (Example 4); format: cell-based, human; details: 100 μM WHI compounds or 10 μM Cal A23187, 3 hours
Method: The percentages of sperm with an intact acrosome were evaluated by fluorescence microscopy (Olympus BX-60) following fixation and ethanol permeabilization of the sperm pellets and subsequent staining with fluorescein (FITC)-conjugated Pisum sativum lectin (Sigma). In positive control sperm, the acrosome reaction was induced by incubating (3 hours at 37° C.) the sperm suspension with 10 μm calcium ionophore (Cal) A23187 (Sigma). […] The percentage of sperm positive for PI were determined by flow cytometry using a FACS Vantage flow cytometer (Becton Dickinson and Co., Mountain View, Calif.). The sperm in the swim-up fractions were identified by their characteristic forward and 90° angle light scattering properties [O. J. D'Cruz and G. G. Haas, Jr. Fertil. Steril. 58, 633 (1992)]. All analyses were done using the 488-nm excitation from an krypton/argon laser with a 635-nm band pass filter for PI emission. The percentage of sperm positive for PI staining were determined using cutoff signals for membrane-intact motile sperm.
Ethanol permeabilized and air-dried sperm smears were stained sequentially with the three fluorescent markers, FITC-Pisum sativum, TOTO-3 iodide, and Nile red, each marking a different target (acrosome, nucleus, and plasma membrane of permeabilized sperm respectively). Samples were examined under a BioRad MRC-1024 Laser Scanning Confocal Microscope (BioRad Laboratories, Hercules, Calif.) equipped with a krypton/argon mixed gas laser (excitation lines 488, 568, and 647 nm) and mounted on a Nikon Eclipse E800 series upright microscope. The fluorescence emission of fluorescein, TOTO-3 iodide, and Nile red from the acrosomal region, nucleus, and the plasma membrane of sperm after ethanol permeabilization were simultaneously detected using the 598/40 nm, 522 DF32, and 680 DF32 emission/filter respectively. Confocal images were obtained using a Nikon 60× (NA 1.35) objective lens and Kalman collection filter. Digitized images were processed with the Adobe Photoshop software (Adobe Systems, Mountain View, Calif.). Final images were printed using a Fujix Pictography 3000 (Fuji Photo Film Co., Tokyo, Japan) color printer.
High-resolution low-voltage scanning electron microscopy was utilized for topographical imaging of different membrane domains over the sperm head as described [M. H. Stoffel et al. Molecular. Reprod. Develop. 34, 175 (1993); S. L. Erlandsen et al. Scanning 11, 169 (1989)]. […] Washed sperm suspensions were placed on 0.1% poly-L-lysine-coated glass chips and allowed to adhere to the glass over a 60 minute incubation period on ice. The supernatants were decanted, and adherent cells were fixed in 1% paraformaldehyde and 1% glutaraldehyde in 0.14 M sodium cacodylate buffer for 3 hours. To preserve plasma membrane integrity, sperm were post-fixed in 1% osmium tetroxide (OSO4) containing 0.1% ruthenium red in 0.14 M cacodylate buffer for 1 hour at 4° C. All samples were dehydrated through an ascending ethanol series, critical point dried, and coated with approximately 2 nm of platinum using ion beam sputtering with argon (4 mA at 10 ke V; Ion Tech Ltd., Middlesex, England). All samples were examined in a Hitachi S-900 SEM at an accelerating voltage of 2 keV. Sperm were observed under low magnification (×2,000-5000) and representative sperm were photographed under intermediate magnification (×18,000-25,000). In each specimen evaluated, at least 200 sperm were scanned for the intactness of sperm acrosomal region.
For transmission electron microscopy, treated sperm were fixed in 3% glutaraldehyde in 5% sucrose in 0.2 M cacodylate buffer for 3 hours at room temperature. The samples were post-fixed in 1% OSO4, 5% sucrose and 0.1% ruthenium red for 2 hours at 4° C. The samples were dehydrated in ascending ethanol series, and embedded in Spurr's epoxy. Thin sections (90 nm) were prepared on a Reichert-Jung Ultracut E and stained with uranyl acetate and lead citrate.

With “5-Bromo-6-methoxy-5,6-dihydro-3 ′-deoxythymidine 5′-[Phenyl methoxyalaninyl phosphate] [WHI-12]” the “spermicidal activity, in words” value (human sperm) was “improvement of the spermicidal activity” and the “anti-HIV activity, in words” value (HIV-1) was “reduction in the anti-HIV activity”.
In the case of “5-Bromo-6-methoxy-5,6-dihydro-3′-deoxythymidine 5′-[p-Bromo phenyl methoxyalaninyl phosphate] [WHI-11]”, the “spermicidal activity, in words” value (human sperm) is reported as “improvement of the spermicidal activity” and the “anti-HIV activity, in words” value (HIV-1) is reported as “reduction in the anti-HIV activity”.
With “5-bromo-6-methoxy-5,6-dihydro-AZT [WHI-01]” the EC50 (human sperm) was 104 µM and the “anti-HIV activity, in words” value (HIV-1) was “without significantly decreasing the anti-HIV activity”.
With `Cc1cn([C@H]2C[C@H](N=[N+]=[N-])[C@@H](CO)O2)c(=O)[nH]c1=O` [AZT, 3′-azido-3′-deoxythymidine, reference compound] the “effect on sperm motion parameters (CASA kinematics)” value (human sperm) was “did not alter the sperm motion parameters”, the “effect on sperm motility” value (human sperm; concentrations as high as 300 μm) was “did not affect sperm motility” and the IC50 (HIV-1; Human immunodeficiency virus 1, PBMC, 168 h, read-out: IC50, HIV-1 replication (p24 antigen)) was 0.006 µM.
For `CNc1ccc2oc(C[C@H]3O[C@@]4(CC[C@H]3C)O[C@H]([C@H](C)C(=O)c3ccc[nH]3)[C@H](C)C[C@H]4C)nc2c1C(=O)O` [Cal A23187, calcium ionophore (Cal) A23187, reference compound], the “sperm head topography by scanning electron microscopy” value (sperm acrosome) was “blebbing or vesiculation, fenestration, and loss of plasma and acrosomal membranes”.
With `COC1N([C@H]2C[C@H](N)[C@@H](CO)O2)C(=O)NC(=O)C1(C)Br` (stereo partly shown) [WHI-03, 5-Bromo-6-methoxy-5,6-dihydro-3′-amino-3 ′-deoxythymidine] the melting point was 188 to 190 °C (dec.), the EC50 (human sperm; Homo sapiens, Sperm) was 12 µM and the “anti-HIV activity, in words” value (HIV-1) was “substantially reduced anti-HIV activity”.
